From publication PMC8145110, “Design, Synthesis, and Antibacterial Screening of Some Novel Heteroaryl-Based Ciprofloxacin Derivatives as DNA Gyrase and Topoisomerase IV Inhibitors” (Pharmaceuticals, 2021)
Converted amounts (≈) assume the structure as drawn.

What was measured:
[1] = test system: P. aeruginosa; assay: MIC, two-fold serial dilution, P. aeruginosa; type: cell-based; details: Pseudomonas aeruginosa; read-out: Minimum Inhibitory Concentration (MIC), P. aeruginosa
Experimental: (§1) Table 2, using the reference drug ciprofloxacin, was presented with the MICs (minimal inhibitory concentrations) of these compounds against tested bacteria. […] The nature of aromatic substitution in the oxadiazole moiety tends to be correlated with higher antibacterial effects and the activity increased with (Ar) in the order of 2-pyridyl ≥ 3-pyridyl > 4-pyridyl > 2-Cl-Ph > 2-naphthyl.
(§2) On 96-well microtiter plates and […] of fresh bacterial culture of a single McFarland unit overnight, a double serial dilution of each compound […] in sterile standard saline was prepared for every single source well. Ciprofloxacin antibiotic (5 mg/mL^−1) and normal saline were included as standard references in each assay (see Appendix A).
(§3) In 96-well microtiter plates and […] of fresh bacterial culture of a single McFarland unit overnight, a double serial dilution of each compound […] in sterile standard saline was prepared for every single source well. Ciprofloxacin antibiotic (5 mg/mL^−1) and normal saline were included as standard reference in each assay. The plates were incubated at 37 °C overnight. As an indicator of bacterial growth, […] of p-iodonitrotetrazolium violet (INT) was added to each well and incubated at 37 °C for 30 min. […] The colorless tetrazolidium salt acts as an electron accepter and is reduced to a red colored formazan product by biological activity organisms. Where bacterial growth was inhibited, the solution in the well remained clear after incubation with INT.

[2] = biological target: T1, E. coli DNA gyrase (Escherichia coli, UniProt P0AES4+P0AES6); assay: E. coli DNA gyrase assay; type: biochemical
T1 construct: purchased Inspiralis
Experimental: (§4) IC50 assay determination was carried out in accordance with the procedures previously stated (see Appendix A).
(§5) Inhibitory activities were determined in an assay from Inspiralis on streptavidin-coated 96-well microtiter plates from Thermo scientific Pierce. […] After washing off the unbound oligonucleotide, the enzyme test was performed. […] After that, the TF buffer (50 mM NaOAc with pH 5.0, 50 mM NaCl and 50 mM MgCl2) was added to terminate the enzymatic reaction. After additional incubation for 30 min at rt, during which biotin-oligonucleotide-plasmid triplex was 19 formed, the unbound plasmid was washed off using TF buffer and SybrGOLD in T10 buffer (10 mM Tris HCl with pH 8.0 and 1 mM EDTA) was added. […] Initial screening was done at 100 or 10 μM concentration of inhibitors. […] GraphPad Prism software was used to calculate the IC50 values. The result is given as the average value of three independent measurements. […] Determination of inhibitory activities on E. coli and S. aureus Topoisomerase IV IC50 values were determined in an assay from Inspiralis on streptavidin-coated 96-well microtiter plates from Thermo scientific Pierce. […] After washing off the unbound oligonucleotide, the enzyme test was performed. The reaction volume of 30 μL in buffer (40 mM HEPES KOH with pH 7.6, 100 mM potassium glutamate, 10 mM magnesium acetate, 10 mM DTT, 1 mM ATP, 0.05 mg/mL albumin) contained 1.5 U of topoisomerase IV from E. coli or S. aureus, 0.75 μg of pNO1 supercoiled plasmid, and 3 μL solution of the inhibitor in DMSO (10%) and Tween 20 (0.008%). […] After additional incubation for 30 min at rt, during which triplex (biotin-oligonucleotide-plasmid) was formed, the unbound plasmid was washed off using TF buffer and SybrGOLD in T10 buffer (10 mM Tris HCl with pH 8.0 and 1 mM EDTA) was added. […] Initial screening was done at 100 or 10 μM concentration of inhibitors. […] GraphPad Prism software was used to calculate the IC50 values. The result is given as the average value of three independent measurements.

[3] = test system: E. coli; assay: MIC, two-fold serial dilution, E. coli; type: cell-based; details: Escherichia coli; read-out: Minimum Inhibitory Concentration (MIC), E. coli
Experimental: as §1, §2, §3

[4] = test system: B. subtilis; assay: MIC, two-fold serial dilution, B. subtilis; type: cell-based; details: Bacillus subtilis; read-out: Minimum Inhibitory Concentration (MIC), B. subtilis
Experimental: as §1, §2, §3

[5] = biological target: T2, E. coli topoisomerase IV (Escherichia coli, UniProt P0AFI2+P20083); assay: E. coli topoisomerase IV assay; type: biochemical
T2 construct: purchased Inspiralis
Experimental: as §4, §5

[6] = test system: S. aureus; assay: MIC, two-fold serial dilution, S. aureus; type: cell-based, Staphylococcus aureus; details: Staphylococcus aureus; read-out: Minimum Inhibitory Concentration (MIC), S. aureus
Experimental: as §1, §2, §3

[7] = test system: Candida albicans (ATCC 7102); assay: Kirby-Bauer disc diffusion, C. albicans; type: cell-based; details: % of fluconazole
Experimental: Furthermore, using fluconazole as a reference drug, 1–21 were tested in vitro for antifungal activity against A. flavus and C. albicans (Table 1).
(§6) The cultures used were collected from the Cairo University’s Microanalytical Centre, Faculty of Science. An updated Kirby-Bauer disc diffusion method was applied for antimicrobial activities of the tests 1–21 compounds [32, 33, 34, 35]. See Appendix A.
The cultures used were collected from the Cairo University’s Microanalytical Centre, Faculty of Science. An updated Kirby-Bauer disc diffusion method was applied for the antimicrobial activities of the tests for compounds 1–21 [28]. […] Plates inoculated with filamentous fungi as Aspergillus flavus were incubated at 25 °C for 48 h; Gram positive bacteria as Staphylococcus aureus (ATCC 12600, Microanalytical center, Cairo, Egypt), Bacillus subtilis (ATCC 6051); Gram negative bacteria as Escherichia coli (ATCC 11775), Pseudomonas aeuroginosa (ATCC 10145) were incubated at 35–37 °C for 24–48 h and yeast as Candida albicans (ATCC 7102) was incubated at 30 °C for 24–48 h and, then the diameters of the inhibition zones were measured in millimeters. […] For the disc diffusion, the zone diameters were measured with slipping calipers of the National Committee for Clinical Laboratory Standards, and the results are given in Table 1. […]

[8] = Cell viability assay (MTT); type: cell-based; set-up: dose or concentration left out as unconfirmed; details: human, MCF-10A mammary gland epithelial cells, four days
Experimental: A human mammary gland epithelial cell line (MCF-10A) was used to conduct a cell viability assay. Compounds 2–6 were incubated with MCF-10A cells for four days, and the viability of the cells was determined using the 3-(4,5-dimethylthiazol-2-yl)-2,5-diphenyltetrazolium bromide (MTT) assay. All compounds had no cytotoxic effects, and the viability of the cells was greater than 85% for most of the compounds examined […], as shown in Table 4.
MTT Assay was performed to investigate the effect of compounds 2–6 on the viability of mammary epithelial cells (MCF-10A) (see Appendix A).

[9] = test system: Staphylococcus aureus (ATCC 12600); assay: Kirby-Bauer disc diffusion, S. aureus; type: cell-based; details: % of ciprofloxacin
Experimental: (§7) An updated Kirby-Bauer disc diffusion method was used to assess the antimicrobial activity of the tested samples [32, 33, 34, 35]. Using ciprofloxacin as a reference drug, synthetic compounds 1–21 were tested in vitro for antibacterial activity against S. aureus and B. subtilis as Gram-positive strains and E. coli and P. aeruginosa as Gram-negative strains. […]. […].
as §6
The cultures used were collected from the Cairo University’s Microanalytical Centre, Faculty of Science. An updated Kirby-Bauer disc diffusion method was applied for the antimicrobial activities of the tests for compounds 1–21 [28]. Shortly after, 10 mL of fresh medium was grown to 100 μL bacteria/food until a count of 10^8 cells/mL or 10^5 cells/mL was achieved. One hundred μL microbial suspension was spread over agar plates that suited the broth in which it was held. The selected colonies of each organism that may play a pathogenic function should be from the primary agar plates and tested by the disc diffusion method for susceptibility. Plates inoculated with filamentous fungi as Aspergillus flavus were incubated at 25 °C for 48 h; Gram positive bacteria as Staphylococcus aureus (ATCC 12600, Microanalytical center, Cairo, Egypt), Bacillus subtilis (ATCC 6051); Gram negative bacteria as Escherichia coli (ATCC 11775), Pseudomonas aeuroginosa (ATCC 10145) were incubated at 35–37 °C for 24–48 h and yeast as Candida albicans (ATCC 7102) was incubated at 30 °C for 24–48 h and, then the diameters of the inhibition zones were measured in millimeters. Standard discs of ciprofloxacin (antibacterial agent), fluconazole (antifungal agent) served as positive controls for antimicrobial activity, but filter discs impregnated with 10 µL of solvent (distilled water, chloroform, DMSO) were used as a negative control. Blank paper disks (Schleicher and Schuell, Cytiva, Spain) with a diameter of 8.0 mm were impregnated with 10 µL of tested concentration of the stock solutions. When a filter paper disc impregnated with a tested chemical is placed on agar, the chemical will diffuse from the disc into the agar. This diffusion will place the chemical in the agar only around the disc. The solubility of the chemical and its molecular size will determine the size of the area of chemical infiltration around the disc. […] For the disc diffusion, the zone diameters were measured with slipping calipers of the National Committee for Clinical Laboratory Standards, and the results are given in Table 1. […]

[10] = test system: Escherichia coli (ATCC 11775); assay: Kirby-Bauer disc diffusion, E. coli; type: cell-based; details: % of ciprofloxacin
Experimental: as §7, §6
The cultures used were collected from the Cairo University’s Microanalytical Centre, Faculty of Science. An updated Kirby-Bauer disc diffusion method was applied for the antimicrobial activities of the tests for compounds 1–21 [28]. Shortly after, 10 mL of fresh medium was grown to 100 μL bacteria/food until a count of 10^8 cells/mL or 10^5 cells/mL was achieved. One hundred μL microbial suspension was spread over agar plates that suited the broth in which it was held. The selected colonies of each organism that may play a pathogenic function should be from the primary agar plates and tested by the disc diffusion method for susceptibility. Plates inoculated with filamentous fungi as Aspergillus flavus were incubated at 25 °C for 48 h; Gram positive bacteria as Staphylococcus aureus (ATCC 12600, Microanalytical center, Cairo, Egypt), Bacillus subtilis (ATCC 6051); Gram negative bacteria as Escherichia coli (ATCC 11775), Pseudomonas aeuroginosa (ATCC 10145) were incubated at 35–37 °C for 24–48 h and yeast as Candida albicans (ATCC 7102) was incubated at 30 °C for 24–48 h and, then the diameters of the inhibition zones were measured in millimeters. […] For the disc diffusion, the zone diameters were measured with slipping calipers of the National Committee for Clinical Laboratory Standards, and the results are given in Table 1. […]

T2 sequence (P0AFI2 whole entry): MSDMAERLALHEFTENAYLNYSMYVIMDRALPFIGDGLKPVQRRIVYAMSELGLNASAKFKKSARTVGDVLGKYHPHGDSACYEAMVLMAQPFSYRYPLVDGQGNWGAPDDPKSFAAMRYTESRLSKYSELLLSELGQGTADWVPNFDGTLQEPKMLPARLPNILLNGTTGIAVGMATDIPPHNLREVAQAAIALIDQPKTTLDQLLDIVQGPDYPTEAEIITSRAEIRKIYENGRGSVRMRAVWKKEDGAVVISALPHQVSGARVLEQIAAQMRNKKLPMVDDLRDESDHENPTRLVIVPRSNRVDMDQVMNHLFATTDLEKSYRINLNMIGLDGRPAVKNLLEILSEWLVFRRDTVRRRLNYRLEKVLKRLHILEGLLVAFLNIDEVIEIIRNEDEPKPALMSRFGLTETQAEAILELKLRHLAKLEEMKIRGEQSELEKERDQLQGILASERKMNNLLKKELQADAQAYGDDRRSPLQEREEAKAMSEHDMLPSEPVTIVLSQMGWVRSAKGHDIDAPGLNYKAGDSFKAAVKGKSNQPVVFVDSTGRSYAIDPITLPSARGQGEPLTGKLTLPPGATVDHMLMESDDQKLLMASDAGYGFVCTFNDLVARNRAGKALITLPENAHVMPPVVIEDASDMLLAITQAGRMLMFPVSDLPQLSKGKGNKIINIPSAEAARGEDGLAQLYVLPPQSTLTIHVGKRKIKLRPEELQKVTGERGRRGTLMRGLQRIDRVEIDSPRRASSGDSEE
T2 sequence (P20083 whole entry): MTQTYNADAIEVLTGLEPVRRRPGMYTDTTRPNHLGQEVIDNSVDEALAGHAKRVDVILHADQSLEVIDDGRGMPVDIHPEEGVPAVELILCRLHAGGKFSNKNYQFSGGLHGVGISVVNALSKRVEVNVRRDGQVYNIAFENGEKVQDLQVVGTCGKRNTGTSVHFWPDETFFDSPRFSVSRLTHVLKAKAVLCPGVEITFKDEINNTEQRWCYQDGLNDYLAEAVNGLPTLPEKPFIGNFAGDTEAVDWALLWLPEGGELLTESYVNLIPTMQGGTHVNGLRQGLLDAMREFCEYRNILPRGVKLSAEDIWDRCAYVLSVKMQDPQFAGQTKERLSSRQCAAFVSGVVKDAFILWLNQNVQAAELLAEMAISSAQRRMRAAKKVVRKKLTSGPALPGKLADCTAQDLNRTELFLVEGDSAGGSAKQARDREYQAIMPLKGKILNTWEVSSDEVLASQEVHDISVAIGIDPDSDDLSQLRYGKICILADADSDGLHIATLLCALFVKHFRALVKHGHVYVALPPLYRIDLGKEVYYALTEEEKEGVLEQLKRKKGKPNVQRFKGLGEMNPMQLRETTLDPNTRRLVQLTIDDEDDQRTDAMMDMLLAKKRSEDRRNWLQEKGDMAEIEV
T1 sequence (P0AES4 whole entry, one chain of several): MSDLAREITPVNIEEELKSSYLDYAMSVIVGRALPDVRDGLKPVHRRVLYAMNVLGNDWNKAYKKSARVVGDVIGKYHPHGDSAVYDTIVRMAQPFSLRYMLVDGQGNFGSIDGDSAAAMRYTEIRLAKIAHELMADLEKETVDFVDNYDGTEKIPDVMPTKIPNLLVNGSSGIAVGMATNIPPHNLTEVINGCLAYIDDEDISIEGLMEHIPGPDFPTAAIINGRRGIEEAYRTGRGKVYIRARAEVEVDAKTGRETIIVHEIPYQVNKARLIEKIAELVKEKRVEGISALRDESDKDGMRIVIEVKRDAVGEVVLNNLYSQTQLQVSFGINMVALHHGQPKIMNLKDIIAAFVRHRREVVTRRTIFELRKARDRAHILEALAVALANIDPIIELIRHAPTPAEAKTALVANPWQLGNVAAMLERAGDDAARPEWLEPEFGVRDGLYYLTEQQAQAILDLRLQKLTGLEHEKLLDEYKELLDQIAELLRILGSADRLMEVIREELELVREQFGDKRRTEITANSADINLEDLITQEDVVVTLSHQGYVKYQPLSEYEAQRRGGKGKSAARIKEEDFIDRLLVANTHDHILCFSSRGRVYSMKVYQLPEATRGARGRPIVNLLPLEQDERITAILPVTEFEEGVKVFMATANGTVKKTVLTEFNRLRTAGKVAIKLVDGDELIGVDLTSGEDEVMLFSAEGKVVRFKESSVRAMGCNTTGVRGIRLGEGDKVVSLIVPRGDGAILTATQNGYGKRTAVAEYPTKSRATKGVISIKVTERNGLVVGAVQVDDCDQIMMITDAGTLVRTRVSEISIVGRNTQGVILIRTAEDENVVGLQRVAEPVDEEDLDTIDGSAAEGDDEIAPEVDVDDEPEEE

SMILES | melting point [°C] | MIC [1] [µg/mL] | IC50 [2] [nM] | MIC [3] [µg/mL] | MIC [4] [µg/mL] | remaining activity at 1 µM ([5]; read-out: RA (%), residual activity of E. coli Topo IV) [%] | MIC [6] [µg/mL] | antifungal activity against C. albicans relative to fluconazole [7] [%] | viability at 4 days [8] [%] | antibacterial activity relative to ciprofloxacin, S. aureus [9] | IC50 [5] [nM] | antibacterial activity relative to ciprofloxacin, E. coli [10]
O=C(O)c1cn(C2CC2)c2cc(N3CCN(Cn4nc(-c5ccc6ccccc6c5)oc4=S)CC3)c(F)cc2c1=O [Compound 3, 1-Cyclopropyl-6-fluoro-7-[4-(5-naphthalen-2-yl-2-thioxo-[1,3,4]oxadiazol-3-ylmethyl)-piperazin-1-yl]-4-oxo-1,4-dihydro-quinoline-3-carboxylic acid] | 244 | 0.05 (≈ 0.0875 µM) | 86 ± 9 | 0.125 (≈ 0.219 µM) | 0.125 (≈ 0.219 µM) | 58 | 0.125 (≈ 0.219 µM) | 33 | 85 | – | – | –
O=C(O)c1cn(C2CC2)c2cc(N3CCN(Cn4nc(-c5ccccn5)oc4=S)CC3)c(F)cc2c1=O [Compound 4, 1-Cyclopropyl-6-fluoro-4-oxo-7-[4-(5-pyridin-2-yl-2-thioxo-[1,3,4]oxadiazol-3-yl-methyl)-piperazin-1-yl]-1,4-dihydro-quinoline-3-carboxylic acid] | 218 | 0.062 (≈ 0.119 µM) | 42 ± 7 | 0.062 (≈ 0.119 µM) | 0.125 (≈ 0.239 µM) | – | 0.035 (≈ 0.067 µM) | – | 89 | equipotent | 1470 ± 200 | equipotent
O=C(O)c1cn(C2CC2)c2cc(N3CCN(Cn4nc(-c5cccnc5)oc4=S)CC3)c(F)cc2c1=O [Compound 5, 1-Cyclopropyl-6-fluoro-4-oxo-7-[4-(5-pyridin-3-yl-2-thioxo-[1,3,4]oxadiazol-3-yl-methyl)-piperazin-1-yl]-1,4-dihydro-quinoline-3-carboxylic acid] | 230 | 0.125 (≈ 0.239 µM) | 92 ± 9 | 0.062 (≈ 0.119 µM) | 0.125 (≈ 0.239 µM) | – | 0.035 (≈ 0.067 µM) | – | 91 | equipotent | 6800 ± 200 | equipotent
